Data on three compounds can be found in patent publication US10208152B2, “Poly(ethylene glycol)-b-poly(halomethylstyrene), derivative thereof, and method for producing same” (priority 2014, dated 2019).

Where two headings read alike, the source gives them in different places.

This data set relates to acetaminophen-induced hepatotoxicity. The conditions noted are these: for Prothrombin time (indicator of hepatic function): FIG. 17. The method, then:
Group 1: Untreated control (4 mice in this group only)
Group 2: 3 mg/kg of acetaminophen administered orally on the 7th day from the start of the test
Group 3: 1 mL of the blank micelles (6.25 mg/mL, 160 mg/kg) synthesized in Example 21 forcibly administered once per day via a feeding tube, 3 m g/kg of acetaminophen administered orally on the 7th day from the start of the test.
Group 5: 170 mg/kg of 4-amino-TEMPO forcibly administered once per day via a feeding tube, 3 mg/kg of acetaminophen administered orally on the 7th day from the start of the test.
Group 6: 600 mg/kg of acetylcysteine forcibly administered once per day via a feeding tube, 3 mg/kg of acetaminophen administered orally on the 7th day from the start of the test.

Setting [1] is: 6 mice before test, substance once per day by feeding tube (newRNP^N Example 16, m=13, 160 mg/kg; 4-amino-TEMPO 170 mg/kg; acetylcysteine 600 mg/kg), 3 mg/kg acetaminophen orally on 7th day.
Where [2] appears, read: oral once per day, 3 mg/kg acetaminophen on 7th day, newRNP^N m=13.

`CC1(C)CC(N)CC(C)(C)N1[O]` [4-amino-TEMPO]: the “Numbers of mice alive, After test” value under setting [1] came out at 2. Under setting [2], the “Prothrombin time (indicator of hepatic function)” value was “extended”. The “Toxicity by albumin quantity and AST, ALT and ALP enzyme levels” value (oral once per day, 3 mg/kg acetaminophen on 7th day, newRNP^N m=13, FIGS. 19 to 22) is recorded as “extremely high toxicity”.
Regarding `CC(=O)Nc1ccc(O)cc1` [acetaminophen], for the setting “IGS, mouse, in vivo, po, 3 mg/kg, 1 day”, the “Numbers of mice alive, After test” value is 2. For the same compound, under “acetaminophen alone, 3 mg/kg orally (group 2)”, the “Share of mice that died within 1 day” value is listed as “two thirds”. Moreover, the “Superoxide dismutase (SOD) production” value (oral once per day, 3 mg/kg acetaminophen on 7th day, newRNP^N m=13, FIG. 18) is listed as “significant decrease”.
As for `CC(=O)N[C@@H](CS)C(=O)O` [acetylcysteine], the “Numbers of mice alive, After test” value under setting [1] amounted to 4. In addition, the “Prothrombin time (indicator of hepatic function)” value under setting [2] is given as “extended”.
